Activity calls are given as the source filed them. The rule behind the calls is not given here.
Test system: Spermatozoa
Test: Spermatostatic activity in rat cauda epididymal spermatozoa assessed as motility effect at 0.5 mg/mL for 30 mins by microscopic method
Assay type: functional, cell-based

**Q.** `C=C(CC[C@@H](C)[C@H]1[C@@H](O)C[C@H]2[C@@H]3[C@@H](O)C=C4C[C@@H](O[C@@H]5O[C@@H](C)[C@@H](OC(C)=O)[C@@H](O)[C@@H]5O)CC[C@]4(C)[C@H]3CC[C@]12C)C(C)C` was tested. Which Activity did it give?
**A.** Active

From ChEMBL document CHEMBL1147315, “A new spermatostatic glycoside from the soft coral Sinularia crispa” (J Nat Prod, 1989)
